Results on seven compounds are retold here after PubChem BioAssay AID1259407 (Chemical Carcinogenesis Research Information System (CCRIS), 2018).

For this series, the system named is CCRIS mutagenicity, Ames/micronucleus/aberration tests. The series can be described thus: CCRIS mutagenicity studies.
Setting [1] is: Test System: AMES SALMONELLA TYPHIMURIUM, Strain/Indicator: TA98, Metabolic Activation: NONE, Method: PREINCUBATION
[2] abbreviates: Test System: AMES SALMONELLA TYPHIMURIUM, Strain/Indicator: TA100, Metabolic Activation: NONE, Method: PREINCUBATION
Setting [3] is: Test System: AMES SALMONELLA TYPHIMURIUM, Strain/Indicator: TA100, Metabolic Activation: NONE, Method: STANDARD PLATE.
The mark [4] stands for this setting: Test System: AMES SALMONELLA TYPHIMURIUM, Strain/Indicator: TA98, Metabolic Activation: NONE, Method: STANDARD PLATE.

Activity calls are given as the source filed them. The rule behind the calls is not given here.

Take `CCCCCCC(C)COC(=O)c1ccccc1C(=O)OCC(C)CCCCCC` (configuration not stated): the mutagenic call was “inactive; negative” (Test System: AMES SALMONELLA TYPHIMURIUM, Strain/Indicator: TA98, Metabolic Activation: HAMSTER, LIVER, S-9, AROCLOR 1254 (10%), Method: PREINCUBATION); “inactive; negative” under setting [1]; “inactive; negative” (Test System: AMES SALMONELLA TYPHIMURIUM, Strain/Indicator: TA98, Metabolic Activation: RAT LIVER S-9, AROCLOR, Method: PREINCUBATION); “inactive; negative” (Test System: AMES SALMONELLA TYPHIMURIUM, Strain/Indicator: TA98, Metabolic Activation: RAT, LIVER, S-9, AROCLOR 1254 (10%), Method: PREINCUBATION); “inactive; negative” (Test System: AMES SALMONELLA TYPHIMURIUM, Strain/Indicator: TA100, Metabolic Activation: HAMSTER, LIVER, S-9, AROCLOR 1254 (10%), Method: PREINCUBATION); “inactive; negative” under setting [2]. Besides, the mutagenic call is “inactive; negative” (Test System: AMES SALMONELLA TYPHIMURIUM, Strain/Indicator: TA100, Metabolic Activation: RAT LIVER S-9, AROCLOR, Method: PREINCUBATION); “inactive; negative” (Test System: AMES SALMONELLA TYPHIMURIUM, Strain/Indicator: TA100, Metabolic Activation: RAT, LIVER, S-9, AROCLOR 1254 (10%), Method: PREINCUBATION); “inactive; negative” (Test System: AMES SALMONELLA TYPHIMURIUM, Strain/Indicator: TA1535, Metabolic Activation: HAMSTER, LIVER, S-9, AROCLOR 1254 (10%), Method: PREINCUBATION); “inactive; negative” (Test System: AMES SALMONELLA TYPHIMURIUM, Strain/Indicator: TA1535, Metabolic Activation: NONE, Method: PREINCUBATION); “inactive; negative” (Test System: AMES SALMONELLA TYPHIMURIUM, Strain/Indicator: TA1535, Metabolic Activation: RAT LIVER S-9, AROCLOR, Method: PREINCUBATION); “inactive; negative” (Test System: AMES SALMONELLA TYPHIMURIUM, Strain/Indicator: TA1535, Metabolic Activation: RAT, LIVER, S-9, AROCLOR 1254 (10%), Method: PREINCUBATION). The mutagenic call was “inactive; negative” (Test System: AMES SALMONELLA TYPHIMURIUM, Strain/Indicator: TA1537, Metabolic Activation: HAMSTER, LIVER, S-9, AROCLOR 1254 (10%), Method: PREINCUBATION); “inactive; negative” (Test System: AMES SALMONELLA TYPHIMURIUM, Strain/Indicator: TA1537, Metabolic Activation: NONE, Method: PREINCUBATION); “inactive; negative” (Test System: AMES SALMONELLA TYPHIMURIUM, Strain/Indicator: TA1537, Metabolic Activation: RAT LIVER S-9, AROCLOR, Method: PREINCUBATION); “inactive; negative” (Test System: AMES SALMONELLA TYPHIMURIUM, Strain/Indicator: TA1537, Metabolic Activation: RAT, LIVER, S-9, AROCLOR 1254 (10%), Method: PREINCUBATION); “inactive; negative” (Test System: MOUSE LYMPHOMA, Strain/Indicator: L5178Y (TK+/TK-), Metabolic Activation: NONE, Method: SUSPENSION/PLATE); “inactive; negative” (Test System: MOUSE LYMPHOMA, Strain/Indicator: L5178Y (TK+/TK-), Metabolic Activation: RAT LIVER S-9, Method: SUSPENSION/PLATE).
As to `ClC(Cl)=C(Cl)C(Cl)=C(Cl)Cl`, the mutagenic call was “inactive; negative” (End Point: IN VITRO CHROMOSOMAL ABERRATIONS, Test System: CHINESE HAMSTER OVARY CELLS, Metabolic Activation: NONE); “inactive; negative” (End Point: IN VITRO CHROMOSOMAL ABERRATIONS, Test System: CHINESE HAMSTER OVARY CELLS, Metabolic Activation: RAT, LIVER, S-9, AROCLOR 1254); “active; positive (structural changes)” (End Point: IN VITRO CHROMOSOMAL ABERRATIONS, Test System: CHL/IU CELLS, Metabolic Activation: NONE); “active; positive” (End Point: IN VITRO MICRONUCLEUS, Test System: CHL/IU CELLS, Metabolic Activation: NONE); “inactive; negative” under setting [2]; “active; positive” under setting [3]. In addition, the mutagenic call is, setting by setting: (Test System: AMES SALMONELLA TYPHIMURIUM, Strain/Indicator: TA100, Metabolic Activation: RAT, LIVER, MICROSOMES AND GLUTATHIONE, Method: PREINCUBATION) “active; positive”; (Test System: AMES SALMONELLA TYPHIMURIUM, Strain/Indicator: TA100, Metabolic Activation: RAT, LIVER, S-9, AROCLOR 1254 (30%), Method: PREINCUBATION) “active; positive”; (Test System: AMES SALMONELLA TYPHIMURIUM, Strain/Indicator: TA100, Metabolic Activation: RAT, LIVER, S-9, AROCLOR 1254, Method: STANDARD PLATE) “active; positive”.
For the compound `COc1ccc(CO)cc1`, the mutagenic call under setting [3] was “inactive; negative”.
Regarding `Nc1ccc(Oc2ccc(Oc3ccc(N)cc3)cc2)cc1`, the mutagenic call is “inactive; negative” under setting [1]; “inactive; negative” under setting [2]; “active; positive” (Test System: AMES SALMONELLA TYPHIMURIUM, Strain/Indicator: TA100, Metabolic Activation: RAT, LIVER, S-9, PCB, Method: PREINCUBATION).
Regarding `CCCCOc1c(C(=O)NOC(C)=O)cccc1[N+](=O)[O-]`, the mutagenic call by setting is: under setting [3], “inactive; negative”; (Test System: AMES SALMONELLA TYPHIMURIUM, Strain/Indicator: TA100, Metabolic Activation: RAT, S-9, AROCLOR, Method: STANDARD PLATE) “active; positive”.
As for `BrCc1ccc2c3c(cccc13)-c1ccccc1-2`, the mutagenic call is “active; positive” under setting [4] and “active; positive” under setting [3].
For the compound `CN(C)CCCNc1c2ccccc2nc2cccc([N+](=O)[O-])c12`, the mutagenic call (Test System: AMES SALMONELLA TYPHIMURIUM, Strain/Indicator: TA98(1,8-DNP6), Metabolic Activation: NONE, Method: STANDARD PLATE) was “active; positive”; the mutagenic call (Test System: AMES SALMONELLA TYPHIMURIUM, Strain/Indicator: TA98(1,8-DNP6), Metabolic Activation: RAT, LIVER, S-9, Method: STANDARD PLATE) is “active; positive”; the mutagenic call (Test System: AMES SALMONELLA TYPHIMURIUM, Strain/Indicator: TA98(NR), Metabolic Activation: NONE, Method: STANDARD PLATE) was “active; positive”; the mutagenic call (Test System: AMES SALMONELLA TYPHIMURIUM, Strain/Indicator: TA98(NR), Metabolic Activation: RAT, LIVER, S-9, Method: STANDARD PLATE) is “active; positive”; the mutagenic call under setting [4] is “active; positive”; the mutagenic call (Test System: AMES SALMONELLA TYPHIMURIUM, Strain/Indicator: TA98, Metabolic Activation: RAT, LIVER, S-9, Method: STANDARD PLATE) is “active; positive”. Further, the mutagenic call under setting [3] was “active; positive”; the mutagenic call (Test System: AMES SALMONELLA TYPHIMURIUM, Strain/Indicator: TA1535, Metabolic Activation: NONE, Method: STANDARD PLATE) is “inactive; negative”; the mutagenic call (Test System: AMES SALMONELLA TYPHIMURIUM, Strain/Indicator: TA1537, Metabolic Activation: NONE, Method: STANDARD PLATE) was “active; positive”; the mutagenic call (Test System: AMES SALMONELLA TYPHIMURIUM, Strain/Indicator: TA1537 PKM101, Metabolic Activation: NONE, Method: STANDARD PLATE) was “active; positive”; the mutagenic call (Test System: AMES SALMONELLA TYPHIMURIUM, Strain/Indicator: TA1538, Metabolic Activation: NONE, Method: STANDARD PLATE) is “active; positive”; the mutagenic call (Test System: CHINESE HAMSTER V-79, Strain/Indicator: V-79/6-THIOGUANINE, Metabolic Activation: NONE, Method: STANDARD PLATE) is “active; positive”. For the same compound, the mutagenic call was “active; positive” (Test System: CHINESE HAMSTER V-79, Strain/Indicator: V-79/OUABAIN, Metabolic Activation: NONE, Method: STANDARD PLATE); “active; positive” (Test System: Escherichia coli, Strain/Indicator: CC107 (G6 to G7 frameshifts), Metabolic Activation: None, Method: Modified preincubation); “active; positive” (Test System: Escherichia coli, Strain/Indicator: CC108 (G6 to G5 frameshifts), Metabolic Activation: None); “active; positive” (Test System: Escherichia coli, Strain/Indicator: CC109 (CG5 to CG4 frameshifts), Metabolic Activation: None, Method: Modified preincubation); “inactive; negative” (Test System: Escherichia coli, Strain/Indicator: CC111 (A7 to A6 frameshifts), Metabolic Activation: None, Method: Modified preincubation).
